In ChEMBL document CHEMBL1126961, “The design and synthesis of kappa opioid ligands based on a binding model for kappa agonists” (Bioorg Med Chem Lett, 1993) one finds Ki and Ratio data, which are given here for four molecules.

SMILES strings stand for the structures. Some results are limits rather than exact numbers.

In general, Ki refers to a dissociation constant, usually derived from enzyme kinetics or from competition with a known ligand. Read a low Ki as tighter binding.

T1 sequence (P41145 whole entry): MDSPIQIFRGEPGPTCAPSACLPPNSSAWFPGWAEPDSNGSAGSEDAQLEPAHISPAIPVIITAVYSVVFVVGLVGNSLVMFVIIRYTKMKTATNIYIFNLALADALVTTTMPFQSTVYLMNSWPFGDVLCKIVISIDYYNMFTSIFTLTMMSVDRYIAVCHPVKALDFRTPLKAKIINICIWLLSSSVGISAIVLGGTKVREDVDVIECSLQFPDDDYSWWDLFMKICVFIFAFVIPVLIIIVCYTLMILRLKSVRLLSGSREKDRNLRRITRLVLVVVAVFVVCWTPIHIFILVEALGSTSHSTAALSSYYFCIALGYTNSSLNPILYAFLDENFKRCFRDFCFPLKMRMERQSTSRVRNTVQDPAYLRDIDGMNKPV

The first experiment has as its target T1, Kappa-type opioid receptor (Homo sapiens, UniProt P41145). Briefly: Tested in vitro for binding affinity against Opioid receptor kappa 1.
Consider `O=C(Cc1cccc2occc12)NCC12CCCN1CCC2`, for which the Ki was 940 nM.
Still for that read-out and setting: the result for `O=C1Cc2cccc(c2)OCCCCNCCN1` reads greater than 10000 nM; that for `CN(C(=O)Cc1c(OCCN2CCCC2)ccc2ccccc12)C1CCCCC1`, 160 nM.

The next experiment deals with T1, Kappa-type opioid receptor. Briefly: Ratio of binding affinity against kappa opioid receptor to binding affinity against mu opioid receptor.
As for `O=C(Cc1cccc2occc12)NCC12CCCN1CCC2`, the Ratio turned out to be 3.5.
With `CN(C(=O)Cc1c(OCCN2CCCC2)ccc2ccccc12)C1CCCCC1`, the Ratio is greater than 60.

The target of a further experiment is Mu-type opioid receptor (Homo sapiens, UniProt P35372). In words: Tested in vitro for binding affinity against mu opioid receptor.
Mu-type opioid receptor, sequence (P35372 whole entry): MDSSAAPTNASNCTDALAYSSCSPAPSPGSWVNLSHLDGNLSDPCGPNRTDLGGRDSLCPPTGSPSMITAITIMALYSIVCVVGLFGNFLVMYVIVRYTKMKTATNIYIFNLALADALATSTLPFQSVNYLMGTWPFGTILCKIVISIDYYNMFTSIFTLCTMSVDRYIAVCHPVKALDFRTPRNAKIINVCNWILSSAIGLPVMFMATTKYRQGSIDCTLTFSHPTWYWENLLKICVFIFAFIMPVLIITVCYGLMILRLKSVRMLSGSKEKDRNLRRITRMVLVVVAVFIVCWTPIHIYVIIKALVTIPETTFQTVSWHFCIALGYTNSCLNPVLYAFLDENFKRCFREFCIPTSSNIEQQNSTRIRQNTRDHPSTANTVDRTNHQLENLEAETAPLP
`O=C(Cc1cccc2occc12)NCC12CCCN1CCC2` yielded a Ki of 3350 nM.
The same measure, in the same setting: then `CC[C@]12CCN(CC3CC3)[C@H](C(=O)c3ccc(O)cc31)[C@@H]2C`, with 1.02 nM; and `O=C1Cc2cccc(c2)OCCCCNCCN1`, with greater than 10000 nM.
The same measure, in the same setting: the result for `CN(C(=O)Cc1c(OCCN2CCCC2)ccc2ccccc12)C1CCCCC1` reads greater than 10000 nM.
